These results are taken from US8188059B2, “Compounds and methods for modulating expression of GCGR” (Isis Pharmaceuticals, Inc., priority 2006, dated 2012).

Strand notation (5' to 3'): a small letter for the sugar, then the base; units joined by * are phosphorothioate-linked, units joined directly phosphodiester-linked; [ ] holds rarer units or linkages, { } end groups; capitals alone tell only the bases. e = 2'-O-(2-methoxyethyl) (MOE); [5mC] = 5-methylcytosine; d = 2'-deoxy (DNA)

In series [1] the test system is rat DGAT2 mRNA. Nature of the series: Dose-dependent inhibition of DGAT2 in A10 cells, 0.62-150 nM (Example 22, Table 83). In kind it is cell-based. On the procedure:
Additional short antisense compounds targeted to DGAT2 mRNA were tested in vitro. A10 cells were prepared as described above and treated with 0.62, 1.85, 5.56, 16.67, 50.0, and 150.0 nM short antisense compounds to determine if DGAT2 inhibition occurs in a dose-dependent manner. DGAT2 mRNA was measured using quantitative real-time PCR, as described herein. […] Results are presented as percent inhibition of rat DGAT2, relative to untreated control cells.

In a further series the test system is DGAT2 mRNA. Briefly: Antisense inhibition of DGAT2 in A10 cells at 75 nM (Example 22, Table 81). In kind it is cell-based, rat. The conditions noted are these: approximately 24 hours. On the procedure: Short antisense compounds targeted to a DGAT2 nucleic acid were tested for their effects on DGAT2 mRNA in vitro. Cultured A10 cells in a 96-well plate were treated with 75 nM of short antisense compound. After a treatment period of approximately 24 hours, RNA was isolated from the cells and DGAT2 mRNA levels were measured by quantitative real-time PCR, as described herein. DGAT2 mRNA levels were adjusted according to total RNA content as measured by RIBOGREEN®. […]

For series [2], the system named is rat DGAT2 mRNA. Nature of the series: Dose-dependent inhibition of DGAT2 in A10 cells, 6.25-200 nM (Example 22, Table 82). It counts as cell-based. On the procedure:
Additional short antisense compounds targeted to DGAT2 mRNA were tested in vitro in a dose-response experiment. A10 cells were prepared as described above and treated with 6.25, 12.5, 25.0, 50.0, 100.0, and 200.0 nM short antisense compounds to determine if DGAT2 inhibition occurs in a dose-dependent manner. […] Results are presented as percent inhibition, relative to untreated control cells.

In another series the test system is rat SGLT2 mRNA. Nature of the series: Rat SGLT2 mRNA levels in kidney, 1-10-1 and 1-10-2 MOE gapmers, Sprague-Dawley rats (Example 13, Table 63). In kind it is in vivo. An excerpt: 1-10-1 and 1-10-2 MOE gapmer antisense compounds, provided in Table 62, were designed to target different regions of the mouse or rat SGLT2 RNA. All short antisense compounds in Table 62 are chimeric oligonucleotides (“gapmers”) either 12 or 13 nucleotides in length, composed of a central “gap” segment consisting of ten 2′-deoxynucleotides, which are flanked on the 5′ side by a one-nucleoside “wing” and on the 3′ side by a two or one-nucleotide “wing”. […] All cytidine residues are 5-methylcytidines.
The short antisense compounds were analyzed for their effect on rat SGLT2 mRNA levels. Data are ranges taken from three experiments in which Male Sprague-Dawley rats (170-200 g) were dosed twice per week for three weeks with 450, 150 or 50 nmol/kg of either a 1-10-1 or 1-10-2 MOE gapmer given by intraperitoneal injection. Rats were sacrificed 48 hours following last administration and evaluated for SGLT2 mRNA levels in kidney. Target levels were determined by RT, real-time PCR as described by other examples herein. PCR results were normalized to an internal ISIS control.

The mark [3] stands for this setting: 50 nmol/kg i.p. twice per week for three weeks.
Where [4] appears, read: 150 nmol/kg i.p. twice per week for three weeks.
The mark [5] stands for this setting: 450 nmol/kg i.p. twice per week for three weeks.

On to “372586 (antisense eG*eT*dT*d[5mC]*d[5mC]*dT*dG*dG*dT*dG*dG*dT*e[5mC]*eA) [compound 372586]”, for which the “percent inhibition of rat DGAT2” value worked out at 0 with rat DGAT2 mRNA [1] (0.62 nM); 0 in the series on rat DGAT2 mRNA [1] (1.85 nM); 0 in the series on rat DGAT2 mRNA [1] (5.56 nM); 0 with rat DGAT2 mRNA [1] (16.67 nM); 7 in the series with rat DGAT2 mRNA [1] (50 nM); 55 in the series on rat DGAT2 mRNA [1] (150 nM). In the series with DGAT2 mRNA, the “DGAT2 mRNA, % Control” value is 40%. The “percent inhibition of DGAT2” value stood at 19 in the series on rat DGAT2 mRNA [2] (6.25 nM); 0 with rat DGAT2 mRNA [2] (12.5 nM); 22 with rat DGAT2 mRNA [2] (50.0 nM); 45 in the series with rat DGAT2 mRNA [2] (100.0 nM); 77 in the series with rat DGAT2 mRNA [2] (200.0 nM); 7 in the series with rat DGAT2 mRNA [2] ([…]).
As to “372602 (antisense e[5mC]*e[5mC]*dA*dG*dG*d[5mC]*dA*dT*dG*dG*dA*dG*e[5mC]*eT) [compound 372602]”, the “percent inhibition of rat DGAT2” value in the series on rat DGAT2 mRNA [1] (0.62 nM) is 0; in the series on rat DGAT2 mRNA [1] (1.85 nM) it was 0; with rat DGAT2 mRNA [1] (5.56 nM) it was 10; in the series with rat DGAT2 mRNA [1] (16.67 nM) it was 0; with rat DGAT2 mRNA [1] (50 nM), 19; in the series on rat DGAT2 mRNA [1] (150 nM), 51. Also, the “DGAT2 mRNA, % Control” value in the series with DGAT2 mRNA turned out to be 39%. Further, the “percent inhibition of DGAT2” value with rat DGAT2 mRNA [2] (6.25 nM) is reported as 0; in the series with rat DGAT2 mRNA [2] (12.5 nM) it was 0; with rat DGAT2 mRNA [2] (50.0 nM) it was 18; in the series with rat DGAT2 mRNA [2] (100.0 nM) it was 47; in the series on rat DGAT2 mRNA [2] (200.0 nM), 76; in the series on rat DGAT2 mRNA [2] ([…]), 0.
On to “372618 (antisense eG*eT*dG*dG*dT*dA*d[5mC]*dA*dG*dG*dT*d[5mC]*eG*eA) [compound 372618]”, for which the “percent inhibition of rat DGAT2” value amounted to 0 with rat DGAT2 mRNA [1] (0.62 nM); 0 in the series on rat DGAT2 mRNA [1] (1.85 nM); 0 in the series with rat DGAT2 mRNA [1] (5.56 nM); 0 with rat DGAT2 mRNA [1] (16.67 nM); 30 with rat DGAT2 mRNA [1] (50 nM); 60 in the series on rat DGAT2 mRNA [1] (150 nM). For the same substance, the “DGAT2 mRNA, % Control” value in the series with DGAT2 mRNA is given as 29%. In addition, the “percent inhibition of DGAT2” value in the series with rat DGAT2 mRNA [2] (6.25 nM) was 0; in the series with rat DGAT2 mRNA [2] (12.5 nM), 5; in the series with rat DGAT2 mRNA [2] (50.0 nM) it was 27; with rat DGAT2 mRNA [2] (100.0 nM), 65; in the series on rat DGAT2 mRNA [2] (200.0 nM) it was 80; with rat DGAT2 mRNA [2] ([…]), 0.
With “ISIS 382675 (antisense eT*dA*dG*d[5mC]*d[5mC]*dA*d[5mC]*d[5mC]*dA*dA*d[5mC]*eT*eG)”, the entries for the “% change in SGLT2 expression relative to saline” value in the series with rat SGLT2 mRNA (setting [3]), in the series with rat SGLT2 mRNA (setting [4]) and with rat SGLT2 mRNA (setting [5]) were −50%, −65% and −80%, respectively.
For the substance “ISIS 382677: SGLT2; GGCATGAGCTTCA 1-10-2 MOE (antisense eG*dG*d[5mC]*dA*dT*dG*dA*dG*d[5mC]*dT*dT*e[5mC]*eA)”, the “% change in SGLT2 expression relative to saline” value was −40% in the series with rat SGLT2 mRNA (setting [3]), −60% in the series on rat SGLT2 mRNA (setting [4]) and −75% in the series with rat SGLT2 mRNA (setting [5]).
